Values joined by “and” are separate entries in the source; they are usually repeats but may differ in a detail not shown here. Equal values may be shown once.
Legend:
Histamine H1 receptor = Histamine H1 receptor (Homo sapiens, UniProt P35367)
Histamine H2 receptor = Histamine H2 receptor (Homo sapiens, UniProt P25021)
[1] = molecular target: T1, Alpha-2C adrenergic receptor (Homo sapiens, UniProt P18825)
T1 sequence (P18825 whole entry): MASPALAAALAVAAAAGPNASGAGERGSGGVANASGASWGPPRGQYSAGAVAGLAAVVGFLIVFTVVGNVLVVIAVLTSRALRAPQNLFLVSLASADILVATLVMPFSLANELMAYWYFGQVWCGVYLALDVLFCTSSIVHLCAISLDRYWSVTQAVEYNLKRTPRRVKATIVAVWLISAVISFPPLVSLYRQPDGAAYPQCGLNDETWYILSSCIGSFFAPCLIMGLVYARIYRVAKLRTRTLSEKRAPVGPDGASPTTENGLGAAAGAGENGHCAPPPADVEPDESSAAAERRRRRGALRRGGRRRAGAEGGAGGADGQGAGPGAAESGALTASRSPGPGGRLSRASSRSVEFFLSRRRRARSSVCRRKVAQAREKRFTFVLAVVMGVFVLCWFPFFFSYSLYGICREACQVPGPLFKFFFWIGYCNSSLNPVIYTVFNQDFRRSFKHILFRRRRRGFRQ

[2] = molecular target: T2, 5-hydroxytryptamine receptor 3A (Rattus norvegicus, UniProt P35563)
T2 sequence (P35563 whole entry): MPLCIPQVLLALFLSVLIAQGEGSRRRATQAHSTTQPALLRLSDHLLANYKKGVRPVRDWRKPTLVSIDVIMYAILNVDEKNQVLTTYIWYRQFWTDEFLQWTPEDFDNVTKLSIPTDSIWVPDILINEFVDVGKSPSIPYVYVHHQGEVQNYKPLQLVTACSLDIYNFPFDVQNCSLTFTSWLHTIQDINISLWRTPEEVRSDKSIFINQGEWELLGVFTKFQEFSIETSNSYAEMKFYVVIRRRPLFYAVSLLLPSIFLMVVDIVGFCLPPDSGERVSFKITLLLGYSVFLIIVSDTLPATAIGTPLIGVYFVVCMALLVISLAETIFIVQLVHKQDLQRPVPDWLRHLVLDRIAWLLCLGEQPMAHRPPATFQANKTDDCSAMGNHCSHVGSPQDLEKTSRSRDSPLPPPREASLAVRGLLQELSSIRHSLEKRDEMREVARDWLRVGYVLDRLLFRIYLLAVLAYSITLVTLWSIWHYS

Histamine receptor H3 = Histamine receptor H3 (Canis lupus familiaris, UniProt Q865E3)
Histamine H3 receptor [3] = molecular target: Histamine H3 receptor (Cavia porcellus, UniProt Q9JI35)
Hrh3 protein = Hrh3 protein (Rattus norvegicus, UniProt Q5PPG3)
[4] = molecular target: T3, Alpha-2A adrenergic receptor (Homo sapiens, UniProt P08913)
T3 sequence (P08913 whole entry): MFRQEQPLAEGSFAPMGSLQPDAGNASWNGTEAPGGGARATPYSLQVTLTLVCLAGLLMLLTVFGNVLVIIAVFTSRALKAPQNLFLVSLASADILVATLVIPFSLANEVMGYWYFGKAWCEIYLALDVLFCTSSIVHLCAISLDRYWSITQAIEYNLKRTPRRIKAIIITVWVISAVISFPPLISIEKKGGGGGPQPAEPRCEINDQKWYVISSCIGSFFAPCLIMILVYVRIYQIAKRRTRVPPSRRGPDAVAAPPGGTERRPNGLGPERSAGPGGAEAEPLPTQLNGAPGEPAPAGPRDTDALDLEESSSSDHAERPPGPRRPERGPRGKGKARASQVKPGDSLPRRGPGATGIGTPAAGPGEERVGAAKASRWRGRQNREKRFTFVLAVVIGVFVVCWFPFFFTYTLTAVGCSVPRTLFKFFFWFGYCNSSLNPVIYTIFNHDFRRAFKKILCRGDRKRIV

Histamine H4 receptor = Histamine H4 receptor (Homo sapiens, UniProt Q9H3N8)
Histamine H3 receptor [5] = molecular target: Histamine H3 receptor (Homo sapiens, UniProt Q9Y5N1)
Chain of Histamine H3 receptor (Homo sapiens, UniProt Q9Y5N1) (Q9Y5N1 whole entry): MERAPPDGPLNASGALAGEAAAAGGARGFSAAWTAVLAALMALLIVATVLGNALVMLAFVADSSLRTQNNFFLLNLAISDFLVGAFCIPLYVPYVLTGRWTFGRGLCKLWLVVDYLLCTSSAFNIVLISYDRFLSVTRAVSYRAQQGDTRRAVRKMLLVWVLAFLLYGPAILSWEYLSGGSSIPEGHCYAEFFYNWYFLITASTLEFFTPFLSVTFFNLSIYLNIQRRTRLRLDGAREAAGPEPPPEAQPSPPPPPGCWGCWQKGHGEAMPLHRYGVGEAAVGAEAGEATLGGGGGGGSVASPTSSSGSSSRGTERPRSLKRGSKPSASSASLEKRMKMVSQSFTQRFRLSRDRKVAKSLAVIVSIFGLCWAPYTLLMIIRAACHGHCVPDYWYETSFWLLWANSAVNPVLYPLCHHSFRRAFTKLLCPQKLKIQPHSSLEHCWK

Chain of Histamine receptor H3 (Q865E3 whole entry): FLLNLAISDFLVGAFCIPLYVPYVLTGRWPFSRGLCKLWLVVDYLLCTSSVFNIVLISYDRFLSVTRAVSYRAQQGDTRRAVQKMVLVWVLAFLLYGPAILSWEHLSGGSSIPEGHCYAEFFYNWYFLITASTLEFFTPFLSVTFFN
Chain of Histamine H2 receptor (P25021 whole entry): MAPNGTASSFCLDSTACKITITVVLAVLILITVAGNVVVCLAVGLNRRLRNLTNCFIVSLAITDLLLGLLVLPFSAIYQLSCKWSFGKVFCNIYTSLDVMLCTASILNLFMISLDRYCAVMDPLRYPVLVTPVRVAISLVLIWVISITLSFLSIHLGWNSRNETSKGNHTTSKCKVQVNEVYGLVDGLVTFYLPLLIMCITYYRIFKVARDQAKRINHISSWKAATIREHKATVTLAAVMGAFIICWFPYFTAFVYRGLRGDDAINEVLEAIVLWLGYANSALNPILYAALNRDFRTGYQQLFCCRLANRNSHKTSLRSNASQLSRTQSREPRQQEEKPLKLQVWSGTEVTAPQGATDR
Chain of Histamine H1 receptor (P35367 whole entry): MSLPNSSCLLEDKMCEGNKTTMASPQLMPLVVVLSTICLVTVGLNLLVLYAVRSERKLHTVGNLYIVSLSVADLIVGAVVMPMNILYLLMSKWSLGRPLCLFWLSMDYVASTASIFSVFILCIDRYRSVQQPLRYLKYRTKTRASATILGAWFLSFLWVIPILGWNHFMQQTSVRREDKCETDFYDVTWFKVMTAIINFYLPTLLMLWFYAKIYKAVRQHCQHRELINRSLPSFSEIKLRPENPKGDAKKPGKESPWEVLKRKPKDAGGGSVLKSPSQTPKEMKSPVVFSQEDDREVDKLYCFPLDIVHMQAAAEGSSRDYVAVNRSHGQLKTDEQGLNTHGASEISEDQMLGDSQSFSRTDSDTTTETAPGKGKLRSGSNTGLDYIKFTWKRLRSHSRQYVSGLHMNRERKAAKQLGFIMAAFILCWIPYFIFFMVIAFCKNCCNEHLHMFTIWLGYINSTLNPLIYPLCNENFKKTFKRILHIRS
Chain of Histamine H3 receptor (Cavia porcellus, UniProt Q9JI35) (Q9JI35 whole entry): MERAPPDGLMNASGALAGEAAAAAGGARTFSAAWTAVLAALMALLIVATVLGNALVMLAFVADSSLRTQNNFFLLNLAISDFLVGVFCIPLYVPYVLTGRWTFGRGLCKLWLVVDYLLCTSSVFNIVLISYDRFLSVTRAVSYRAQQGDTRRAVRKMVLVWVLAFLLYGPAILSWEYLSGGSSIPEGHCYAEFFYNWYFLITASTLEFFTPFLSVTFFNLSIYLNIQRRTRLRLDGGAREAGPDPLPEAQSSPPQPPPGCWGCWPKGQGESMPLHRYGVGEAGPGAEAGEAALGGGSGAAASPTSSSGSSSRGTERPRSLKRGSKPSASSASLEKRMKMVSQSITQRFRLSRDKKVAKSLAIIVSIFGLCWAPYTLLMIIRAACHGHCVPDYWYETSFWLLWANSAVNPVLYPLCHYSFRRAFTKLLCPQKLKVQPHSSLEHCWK
Chain of Hrh3 protein (Q5PPG3 whole entry): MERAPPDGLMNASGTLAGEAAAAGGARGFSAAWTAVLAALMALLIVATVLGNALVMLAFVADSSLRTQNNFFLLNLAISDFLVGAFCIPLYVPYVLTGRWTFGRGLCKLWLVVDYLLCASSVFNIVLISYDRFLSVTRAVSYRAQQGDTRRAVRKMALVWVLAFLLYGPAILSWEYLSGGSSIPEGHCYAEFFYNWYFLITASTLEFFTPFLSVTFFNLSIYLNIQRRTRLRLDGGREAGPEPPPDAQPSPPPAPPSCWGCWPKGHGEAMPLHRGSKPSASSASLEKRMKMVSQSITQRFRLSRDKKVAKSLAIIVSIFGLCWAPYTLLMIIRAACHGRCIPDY

| Ki (Histamine H1 receptor) [nM] | Ki (Histamine H2 receptor) [nM] | Ki (Histamine receptor H3) [nM] | Ki (Histamine H3 receptor [3]) [nM] | Ki (Hrh3 protein) | Ki [4] [nM] | Ki (Histamine H4 receptor) [nM] | Ki (Histamine H3 receptor [5]) | SMILES | Ki [1] [nM] | Ki [2] [nM] |
| --- | --- | --- | --- | --- | --- | --- | --- | --- | --- | --- |
| > 10000 | > 10000 | 5.75 | 1.74 | 0.51 nM and 0.63 nM | 42.7 | 1860 |  | O=C(c1ccc(OCCCc2cnc[nH]2)cc1)C1CC1 |  | 302 |
| 3980 | > 10000 | 4.27 | 2.4 | 0.71 nM and 0.72 nM | > 10000 | > 10000 |  | C[C@@H](NC(=O)c1ccco1)C(=O)N1CCN(CCCOc2ccc(C(=O)C3CC3)cc2)CC1 | 2400 | > 10000 |
| > 10000 | > 10000 | 46.8 | 17.4 | 2.51 nM and 1.26 nM | > 10000 | > 10000 | 759 nM and 813 nM | CCn1c(=O)[nH]c(=O)c2conc21 [A-304121] | 2880 |  |

| SMILES | Ki (Histamine H1 receptor) [nM] | Ki (Histamine H2 receptor) [nM] | Ki (Histamine receptor H3) [nM] | Ki (Histamine H3 receptor [3]) [nM] | Ki (Hrh3 protein) | Ki [4] [nM] | Ki (Histamine H4 receptor) [nM] | Ki (Histamine H3 receptor [5]) | Ki [1] [nM] | Ki [2] [nM] |
| --- | --- | --- | --- | --- | --- | --- | --- | --- | --- | --- |
| S=C(NC1CCCCC1)N1CCC(c2cnc[nH]2)CC1 | > 10000 | > 10000 | 6.76 | 4.57 | 3.63 nM and 7.08 nM | 126 |  |  | 347 | 2290 |
| NC(=NCc1ccc(Cl)cc1)SCCCc1cnc[nH]1 [VUF 9153] | 6310 | 2510 | 0.08 | 0.22 |  | 17.4 | 41.7 |  | 15.9 | 7.41 |

Source: BindingDB's records for doi:10.1124/jpet.102.047183 (Abbott Laboratories, 2003)
